Values joined by “and” are separate entries in the source; they are usually repeats but may differ in a detail not shown here. Equal values may be shown once.
Test system: NCI-H1417 complex spheroids, growth % test/control
Experiment: Anticancer human tumor NCI-H1417 cell line growth inhibition [Asc];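 note: spheroids exposed to compounds for 7 days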;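 for viability, T/C: 100% = DMSO vehicle control wells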
Conditions: for viability, T/C: stronger effect = lower value; active = viability on the fitted dose curve at most 10% of control; inactive = the rest
In short: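 Concentration series start at each agent's clinical Cmax, or at 10 microM when none is established, and drop in half-log steps; agents are applied alone or together to complex spheroids built with HUVEC and hMSC.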

Cc1nc(N2CCC3(CC2)COC(C)C3N)c(CO)nc1Sc1ccnc(N)c1Cl (stereo unspecified)
> 3000 nM: IC50 (curve of compound)
inactive: viability, T/C (compound 0.00949 µM) 83.4% and 92.6% and 92.5% | viability, T/C (compound 0.03 µM) 82.8% and 102% and 101% | viability, T/C (compound 0.0949 µM) 104% and 101% and 77.7% | viability, T/C (compound 0.3 µM) 112% and 84.2% and 93% | viability, T/C (compound 0.949 µM) 101% and 84% and 83.2% | viability, T/C (compound 3 µM) 76.5% and 70.5% and 76.4%

NC(=O)C(=Cn1cnc(-c2cc(C(F)(F)F)cc(C(F)(F)F)c2)n1)c1cncnc1
178 nM and 134 nM and 259 nM: IC50 (curve of compound)
inactive: viability, T/C (compound 0.000949 µM) 98.9% and 102% and 99.9% | viability, T/C (compound 0.003 µM) 99.9% and 106% and 107% | viability, T/C (compound 0.00949 µM) 89.7% and 96.8% and 104% | viability, T/C (compound 0.03 µM) 93% and 97.1% and 94.3% | viability, T/C (compound 0.0949 µM) 79.8% and 61.8% and 85.1% | viability, T/C (compound 0.3 µM) 25.3% and 22.2% and 44.6%

CCN1CCN(Cc2ccc(Nc3ncc(F)c(-c4cc(F)c5nc(C)n(C(C)C)c5c4)n3)nc2)CC1 + CCN1C(C(=O)NC23CCC(C(=O)O)(CC2)CC3)C(c2cccc(Cl)c2F)C2(C(=O)Nc3cc(Cl)ccc32)C12CCCCC2
> 1000 nM: IC50 (curve of first compound, second compound 0.03 µM) | IC50 (curve of first compound, second compound 0.0949 µM) | IC50 (curve of first compound, second compound 0.3 µM) | IC50 (curve of first compound, second compound 0.949 µM) | IC50 (curve of first compound, second compound 3 µM)
inactive: viability, T/C (second compound 0.03 µM, first compound 0.00316 µM) 108% | viability, T/C (second compound 0.03 µM, first compound 0.01 µM) 110% | viability, T/C (second compound 0.03 µM, first compound 0.0316 µM) 93.6% | viability, T/C (second compound 0.03 µM, first compound 0.1 µM) 93.8% | viability, T/C (second compound 0.03 µM, first compound 0.316 µM) 97.8% | viability, T/C (second compound 0.03 µM, first compound 1 µM) 83% | viability, T/C (second compound 0.0949 µM, first compound 0.00316 µM) 103% | viability, T/C (second compound 0.0949 µM, first compound 0.01 µM) 104% | viability, T/C (second compound 0.0949 µM, first compound 0.0316 µM) 92.7% | viability, T/C (second compound 0.0949 µM, first compound 0.1 µM) 98.2% | viability, T/C (second compound 0.0949 µM, first compound 0.316 µM) 94% | viability, T/C (second compound 0.0949 µM, first compound 1 µM) 91.5% | viability, T/C (second compound 0.3 µM, first compound 0.00316 µM) 103% | viability, T/C (second compound 0.3 µM, first compound 0.01 µM) 100% | viability, T/C (second compound 0.3 µM, first compound 0.0316 µM) 110% | viability, T/C (second compound 0.3 µM, first compound 0.1 µM) 102% | viability, T/C (second compound 0.3 µM, first compound 0.316 µM) 95.7% | viability, T/C (second compound 0.3 µM, first compound 1 µM) 81.2% | viability, T/C (second compound 0.949 µM, first compound 0.00316 µM) 87.2% | viability, T/C (second compound 0.949 µM, first compound 0.01 µM) 93.1% | viability, T/C (second compound 0.949 µM, first compound 0.0316 µM) 88.2% | viability, T/C (second compound 0.949 µM, first compound 0.1 µM) 91.1% | viability, T/C (second compound 0.949 µM, first compound 0.316 µM) 88.8% | viability, T/C (second compound 0.949 µM, first compound 1 µM) 78.4% | viability, T/C (second compound 3 µM, first compound 0.00316 µM) 99.5% | viability, T/C (second compound 3 µM, first compound 0.01 µM) 91.1% | viability, T/C (second compound 3 µM, first compound 0.0316 µM) 98.8% | viability, T/C (second compound 3 µM, first compound 0.1 µM) 91.4% | viability, T/C (second compound 3 µM, first compound 0.316 µM) 83.8% | viability, T/C (second compound 3 µM, first compound 1 µM) 75.1%

CCN1CCN(Cc2ccc(Nc3ncc(F)c(-c4cc(F)c5nc(C)n(C(C)C)c5c4)n3)nc2)CC1
inactive: viability, T/C (compound 0.00316 µM) 99.3% and 89.7% and 102% | viability, T/C (compound 0.01 µM) 95.8% and 105% and 93.8% | viability, T/C (compound 0.0316 µM) 99.9% and 102% and 101% | viability, T/C (compound 0.1 µM) 96.5% and 111% and 105% | viability, T/C (compound 0.316 µM) 92.8% and 84.3% and 97.3% | viability, T/C (compound 1 µM) 91.7% and 81% and 79.7%
> 1000 nM: IC50 (curve of compound)

Reference: PubChem BioAssay AID1963440 (Molecular Pharmacology Branch, DTP, NCI, 2024)
